# Measurements taken from publication PMC10141580, “Cyclic Dichalcogenides Extend the Reach of Bioreductive Prodrugs to Harness Thiol/Disulfide Oxidoreductases: Applications to seco-Duocarmycins Targeting the Thioredoxin System” (ACS Central Science, 2023).
# Read-outs that look alike come from different tables or passages of the source.
# Tested on: panel of 140 standard cancer cell lines
# Assay: ProliFiler-140 cancer cell line screen (CellTiterGlo, 72 h)
# Assay type: cell-based
# Method: Incubations were performed for 72 h before automated viability readout with CellTiterGlo (Figure 8).
# End of Figure S11 (part 5 of 5): ProliFiler-140 cancer cell line screening for cytotoxicity of the prodrugs.
# 8-data-point dose response curves from CellTiter-Glo® viability readout.
# ProliFiler-140 cell line panel part V
smiles,measurement,setting,value
"COc1cccc2c1C(=O)c1c(O)c3c(c(O)c1C2=O)C[C@@](O)(C(=O)CO)C[C@@H]3O[C@H]1C[C@H](N)[C@H](O)[C@H](C)O1 [doxorubicin, reference compound]",IC50,"A172 (Brain), listed as Dox, read-out: IC50 [M] (ProliFiler-140)",9.4e-08 M
same,IC50,"A375 (Skin), listed as Dox, read-out: IC50 [M] (ProliFiler-140)",4.8e-08 M
same,IC50,"A427 (Lung), listed as Dox, read-out: IC50 [M] (ProliFiler-140)",6.56e-08 M
same,IC50,"A431 (Skin), listed as Dox, read-out: IC50 [M] (ProliFiler-140)",1.7e-07 M
same,IC50,"A549 (Lung), listed as Dox, read-out: IC50 [M] (ProliFiler-140)",3.11e-07 M
same,IC50,"A2058 (Skin), listed as Dox, read-out: IC50 [M] (ProliFiler-140)",3.73e-08 M
same,IC50,"AsPC-1 (Pancreas), listed as Dox, read-out: IC50 [M] (ProliFiler-140)",1.16e-06 M
same,IC50,"BT-20 (Breast), listed as Dox, read-out: IC50 [M] (ProliFiler-140)",2.35e-07 M
same,IC50,"BxPC-3 (Pancreas), listed as Dox, read-out: IC50 [M] (ProliFiler-140)",2.8e-07 M
same,IC50,"COR-L279 (Lung), listed as Dox, read-out: IC50 [M] (ProliFiler-140)",7.88e-08 M
same,IC50,"COV434 (Ovary), listed as Dox, read-out: IC50 [M] (ProliFiler-140)",6.97e-08 M
same,IC50,"COV434, COV434 (Ovary), read-out: IC50 [M] (ProliFiler-140)",7e-08 M
same,IC50,"Caki-1 (Kidney), listed as Dox, read-out: IC50 [M] (ProliFiler-140)",3.4e-07 M
same,IC50,"Caki-2 (Kidney), listed as Dox, read-out: IC50 [M] (ProliFiler-140)",1e-06 M
same,IC50,"Calu-6 (Lung), listed as Dox, read-out: IC50 [M] (ProliFiler-140)",7.7e-07 M
same,IC50,"DU-145 (Prostate), listed as Dox, read-out: IC50 [M] (ProliFiler-140)",1.52e-07 M
same,IC50,"DV90 (Lung), listed as Dox, read-out: IC50 [M] (ProliFiler-140)",1.95e-08 M
same,IC50,"EFM-19 (Breast), listed as Dox, read-out: IC50 [M] (ProliFiler-140)",4.73e-07 M
same,IC50,"EFM-192A (Breast), listed as Dox, read-out: IC50 [M] (ProliFiler-140)",7.35e-07 M
same,IC50,"EFM-192A, EFM-192A (Breast), read-out: IC50 [M] (ProliFiler-140)",7.3e-07 M
same,IC50,"EFO-27 (Ovary), listed as Dox, read-out: IC50 [M] (ProliFiler-140)",2.93e-07 M
same,IC50,"H4 (Brain), listed as Dox, read-out: IC50 [M] (ProliFiler-140)",8.2e-08 M
same,IC50,"H4 (Brain), read-out: IC50 [M] (ProliFiler-140)",8.18e-08 M
same,IC50,"H1299 (Lung), listed as Dox, read-out: IC50 [M] (ProliFiler-140)",2.2e-07 M
same,IC50,"H2228 (Lung), listed as Dox, read-out: IC50 [M] (ProliFiler-140)",5.7e-08 M
same,IC50,"HCC202 (Breast), listed as Dox, read-out: IC50 [M] (ProliFiler-140)",7.65e-07 M
same,IC50,"HCC202, HCC202 (Breast), read-out: IC50 [M] (ProliFiler-140)",7.6e-07 M
same,IC50,"HCC827 (Lung), listed as Dox, read-out: IC50 [M] (ProliFiler-140)",3.48e-07 M
same,IC50,"HCC 1569 (Breast), listed as Dox, read-out: IC50 [M] (ProliFiler-140)",7.01e-07 M
same,IC50,"HCT-15 (Colon), listed as Dox, read-out: IC50 [M] (ProliFiler-140)",6.4e-07 M
same,IC50,"HEC-1-A (Endometrium), listed as Dox, read-out: IC50 [M] (ProliFiler-140)",3.27e-07 M
same,IC50,"HEC-1-B (Endometrium), listed as Dox, read-out: IC50 [M] (ProliFiler-140)",2.37e-06 M
same,IC50,"HL-60 (Blood), listed as Dox, read-out: IC50 [M] (ProliFiler-140)",2.65e-08 M
same,IC50,"HT-29 (Colon), listed as Dox, read-out: IC50 [M] (ProliFiler-140)",3.69e-07 M
same,IC50,"HeLa (Cervix), listed as Dox, read-out: IC50 [M] (ProliFiler-140)",8e-08 M
same,IC50,"Hep3B2.1-7 (Liver), listed as Dox, read-out: IC50 [M] (ProliFiler-140)",5.32e-07 M
same,IC50,"Hep3B2.1-7 (Liver), read-out: IC50 [M] (ProliFiler-140)",5.3e-07 M
same,IC50,"Homo sapiens, 786-0, 786-O (Kidney), read-out: IC50 [M] (ProliFiler-140)",1.15e-07 M
same,IC50,"Homo sapiens, 786-0, 786-O, read-out: IC50",1.1e-07 M
same,IC50,"Homo sapiens, A 172, A172 (Brain), read-out: IC50 [M] (ProliFiler-140)",9.38e-08 M
same,IC50,"Homo sapiens, A498, A498 (Kidney), read-out: IC50 [M] (ProliFiler-140)",3.22e-07 M
same,IC50,"Homo sapiens, A498, A498, read-out: IC50",3.2e-07 M
same,IC50,"Homo sapiens, A549, A549, read-out: IC50",3.1e-07 M
same,IC50,"Homo sapiens, A2058, A2058 (Skin), read-out: IC50 [M] (ProliFiler-140)",3.7e-08 M
same,IC50,"Homo sapiens, A2780, A2780 (Ovary), read-out: IC50 [M] (ProliFiler-140)",1.8e-08 M
same,IC50,"Homo sapiens, A-375, A375 (Skin), read-out: IC50 [M] (ProliFiler-140)",4.76e-08 M
same,IC50,"Homo sapiens, A-427, A427 (Lung), read-out: IC50 [M] (ProliFiler-140)",6.6e-08 M
same,IC50,"Homo sapiens, A-431, A431 (Skin), read-out: IC50 [M] (ProliFiler-140)",1.74e-07 M
same,IC50,"Homo sapiens, ASPC1, AsPC-1 (Pancreas), read-out: IC50 [M] (ProliFiler-140)",1.2e-06 M
same,IC50,"Homo sapiens, BT-20, BT-20 (Breast), read-out: IC50 [M] (ProliFiler-140)",2.3e-07 M
same,IC50,"Homo sapiens, BXPC-3, BxPC-3 (Pancreas), read-out: IC50 [M] (ProliFiler-140)",2.78e-07 M
same,IC50,"Homo sapiens, CAKI-1, Caki-1 (Kidney), read-out: IC50 [M] (ProliFiler-140)",3.39e-07 M
same,IC50,"Homo sapiens, CAKI-2, Caki-2 (Kidney), read-out: IC50 [M] (ProliFiler-140)",1.03e-06 M
same,IC50,"Homo sapiens, COR-L279, COR-L279 (Lung), read-out: IC50 [M] (ProliFiler-140)",7.9e-08 M
same,IC50,"Homo sapiens, Calu-6, Calu-6 (Lung), read-out: IC50 [M] (ProliFiler-140)",7.69e-07 M
same,IC50,"Homo sapiens, DLD-1, DLD-1 (Colon), read-out: IC50 [M] (ProliFiler-140)",1.37e-07 M
same,IC50,"Homo sapiens, DU-145, DU-145 (Prostate), read-out: IC50 [M] (ProliFiler-140)",1.5e-07 M
same,IC50,"Homo sapiens, DU-145, DU-145, read-out: IC50",1.5e-07 M
